According to patent US20180333382A1, “PHARMACEUTICAL COMPOSITIONS COMPRISING DGLA AND USE OF SAME” (DS Biopharma Limited, priority 2017, published 2018):
Values joined by “and” are separate entries in the source; they are usually repeats but may differ in a detail not shown here. Identical values can stand only once. Marks after values point to notes of the source that are not given here.

Tests used:
[1] = test system: spontaneous hypertensive rats; assay: Arterial pressure and phenylephrine-induced hypertensive response after seven days of gavage (DGLA, aspirin, DGLA + aspirin); type: in vivo, rat
Protocol: An in vivo investigation of anti-hypertension efficacy following co-administration of DGLA and aspirin in spontaneous hypertensive rats was conducted. This experiment investigated the efficacy of DGLA when co-administered chronically with aspirin to reduce the hypertensive response induced acutely by phenylephrine in spontaneous hypertensive rats. Spontaneously hypertensive adult male rats (250-300 g), bred by Charles River Laboratories, were used for this assay. The animals were identified upon arrival as per CCPA guidelines. The animals were pair-housed by group (low dose+aspirin, high dose+aspirin or aspirin alone) for the duration of the oral gavage prior to surgery. All animal care and vivarium maintenance was recorded, with documents kept at the test facility.
The concentrations of DGLA to be tested (50 and 500 mg/kg) as well as the concentration of aspirin (10 mg/kg) were selected by the Sponsor based on information available at the time of design of this study. They were selected to cover a range of concentrations useful for the identification of the mechanism of action of the test article.
All solution preparations were documented on a Solution Contents Form, defining labelling information and all relevant information on reagents: batch number, storage conditions, contents, and preparation/expiry dates.
The test article was formulated using olive oil as the vehicle. This stock solution was then administered by oral gavage once per day for seven consecutive days. A low and a high dose (50 mg/kg and 500 mg/kg) were tested.
A 5 mg/ml stock solution of aspirin was prepared by dissolving the appropriate amount of aspirin in 100% DMSO which was then diluted in water. The concentration of DMSO was less than 1%. The appropriate volume was administered by oral gavage to each animal once per day for seven consecutive days. The stock solution was stored at room temperature and was considered stable for the duration of the gavage.
The appropriate volume was administered to each animal by an intravenous injection at the end of the experiment on the surgery day. The stock solution was stored at 4° C. and was considered stable for the duration of the experiment.
A stock solution of phenylephrine of 1 mg/ml were prepared in PBS (pH=7.4±0.05). The stock solution was stored at 4° C. The expiration date was set at 14 days after preparation.
Male spontaneous hypertensive rats weighing approximately 300 g arrived at the facility at least two days before beginning the oral gavage. Animals were assigned to one of three groups (low dose+aspirin, high dose+aspirin, and aspirin), and were pair-housed during the acclimation period. Each group (n=4) received the appropriate compound by oral gavage using a 16 G feeding needle. The stock solution was administered once per day for seven consecutive days. On the seventh day of administration, the animals underwent surgery and hypertensive monitoring.
Rats were anesthetized with a 2.5-3.0% isoflurane-O2 mixture in an induction box. When the animals were removed from the induction box, they were connected onto a nose cone to maintain anesthesia during the tracheotomy. The animals were tracheotomised with an endotracheal tube (7 cm length from connector to the tip made with a PE205 tube from BD and a 16 G needle) to facilitate spontaneous breathing, stabilize hemodynamics, and to keep the rat under anesthesia with an isoflurane-O2 mixture. Two catheters were inserted: one in the right femoral artery for systemic arterial pressure (SAP) measurement, and one in the right femoral vein for delivery of the hypertensor and positive control. ECG signals were acquired with ECG contacts placed in a Lead-1 configuration on the anaesthetized animal, and a pulse oxymeter was attached to the animal's hind paw to enable continuous monitoring of the general condition of the rat during the surgical procedure.

[2] = in vivo
Protocol: In Part one of the study, plasma PK analysis of Dihomo-Gamma-Linolenic Acid (DGLA) and 15-Hydroxyeicosatrienoic acid (15-HETrE), in fasted subjects alone, was performed for Cohorts one to four up to 312 hours post dose on study Days 1 to 5, 8, 14, and the follow-up visit.
Analysis of plasma concentrations of DGLA (free and total) and free 15-HETrE were performed in blood samples obtained from the subjects.
Analysis of all plasma and skin blister fluid samples was performed using validated methods. Concentrations of free and total DGLA were measured in plasma and skin blister fluid by liquid chromatography with tandem mass spectrometry (LC/MS/MS); the quantitation range was 100 to 10,000 ng/mL for free DGLA and 5000 to 500,000 ng/mL for total DGLA. Plasma concentrations of free 15-HETrE were measured by LC/MS/MS with a quantitation range of 100 to 10,000 ng/mL.

[3] = Aspirin 10 mg/kg, seven days of gavage, before phenylephrine
[4] = aspirin only (10 mg/kg), seven consecutive days of gavage
[5] = aspirin only (10 mg/kg), seven consecutive days of gavage, Rat #1-#5

Question: With `COc1ccccc1OCCNCC(O)COc1cccc2[nH]c3ccccc3c12` (stereo not shown) [Carvedilol, carvedilol] as the compound, how does the “effect on blood pressure” value ([1]; 0.1 mg/kg iv, DGLA+aspirin-fed animals) read?
Answer: significant decrease in blood pressure

Question: What about the “effect on mean systemic arterial pressure when added after phenylephrine” value ([1]; 0.1 mg/kg iv, aspirin-fed rats) of the same compound?
Answer: significant decrease

Question: What about the “Mean Arterial Pressure, individual rats” value ([1]; gavage Aspirin 10 mg/kg 7 days, Carvedilol 0.1 mg/kg iv) of the same compound?
Answer: 57.12 mmHg and 44.38 mmHg and 145.56 mmHg and 134.82 mmHg and 115.06 mmHg

Question: And the “Mean Arterial Pressure, individual rats” value ([1]; gavage DGLA 50 mg/kg + Aspirin 10 mg/kg 7 days, Carvedilol 0.1 mg/kg iv)?
Answer: 115.29 mmHg and 97.01 mmHg and 126.33 mmHg and 59.10 mmHg and 58.93 mmHg

Question: What about the “Mean Arterial Pressure, Average SAP” value ([1]; gavage DGLA 50 mg/kg + Aspirin 10 mg/kg 7 days, Carvedilol 0.1 mg/kg iv, n=5) of the same compound?
Answer: 91.3 † mmHg

Question: And the “Mean Arterial Pressure, individual rats” value ([1]; gavage DGLA 500 mg/kg + Aspirin 10 mg/kg 7 days, Carvedilol 0.1 mg/kg iv)?
Answer: 62.13 mmHg and 57.56 mmHg and 57.32 mmHg and 52.11 mmHg

Question: What about the “Mean Arterial Pressure, Average SAP” value ([1]; gavage DGLA 500 mg/kg + Aspirin 10 mg/kg 7 days, Carvedilol 0.1 mg/kg iv, n=4) of the same compound?
Answer: 57.3 † mmHg

Question: With `CNC[C@H](O)c1cccc(O)c1` [phenylephrine] as the compound, how does the “hypertensor effect on mean systemic arterial pressure” value ([1]; 3, 10, 20 μg/kg iv, rats fed with aspirin) read?
Answer: increased mean systemic arterial pressure with increasing doses

Question: With `CCCCC[C@H](O)/C=C/C=C\C/C=C\CCCCCCC(=O)O` [15-HETrE, 15-Hydroxyeicosatrienoic acid] as the compound, how does the “plasma free 15-HETrE concentrations after DS107G” value [2] read?
Answer: < 100 ng/mL

Question: With `CC(=O)Oc1ccccc1C(=O)O` [Aspirin, aspirin] as the compound, how does the “Arterial pressure, Diastol” value [1, 3] read?
Answer: 100 mmHg

Question: And the “Arterial pressure, Systol” value [1, 3]?
Answer: 190 mmHg

Question: And the “Mean systemic arterial pressure” value [1, 3]?
Answer: 130 mmHg

Question: And the “Mean arterial pressure at baseline, Average SAP” value [1, 4]?
Answer: 136.8 mm of Hg

Question: What about the “Mean arterial pressure with an intravenous dose of Phenylephrine 20 μg/kg, Average SAP” value [1, 4] of the same compound?
Answer: 174.3 mm of Hg

Question: And the “Mean arterial pressure at baseline, individual rats” value [1, 5]?
Answer: 86.75 mm of Hg and 107.64 mm of Hg and 160.50 mm of Hg and 141.36 mm of Hg and 187.84 mm of Hg

Question: And the “Mean arterial pressure with an intravenous dose of Phenylephrine 20 μg/kg, individual rats” value [1, 5]?
Answer: 149.35 mm of Hg and 120.84 mm of Hg and 202.61 mm of Hg and 194.76 mm of Hg and 203.90 mm of Hg

Question: What about the “Mean Arterial Pressure, individual rats” value ([1]; gavage Aspirin 10 mg/kg 7 days, Baseline) of the same compound?
Answer: 86.75 mmHg and 107.64 mmHg and 160.50 mmHg and 141.36 mmHg and 187.84 mmHg

Question: What about the “Mean Arterial Pressure, Average” value ([1]; gavage Aspirin 10 mg/kg 7 days, Baseline, n=5) of the same compound?
Answer: 136.8 mmHg

Question: What about the “Mean Arterial Pressure, individual rats” value ([1]; gavage Aspirin 10 mg/kg 7 days, PHE 3 μg/kg iv) of the same compound?
Answer: 97.24 mmHg and 122.18 mmHg and 168.06 mmHg and 150.54 mmHg and 192.06 mmHg

Question: What about the “Mean Arterial Pressure, Average” value ([1]; gavage Aspirin 10 mg/kg 7 days, PHE 3 μg/kg iv, n=5) of the same compound?
Answer: 146.0* mmHg

Question: And the “Mean Arterial Pressure, individual rats” value ([1]; gavage Aspirin 10 mg/kg 7 days, PHE 10 μg/kg iv)?
Answer: 137.63 mmHg and 122.18 mmHg and 203.75 mmHg and 169.61 mmHg and 201.69 mmHg

Question: And the “Mean Arterial Pressure, individual rats” value ([1]; gavage Aspirin 10 mg/kg 7 days, PHE 10 μg/kg iv after Carvedilol)?
Answer: 93.22 mmHg and 52.61 mmHg and 185.63 mmHg and 171.45 mmHg and 187.96 mmHg

Question: And the “Mean Arterial Pressure, Average” value ([1]; gavage Aspirin 10 mg/kg 7 days, PHE 10 μg/kg iv after Carvedilol, n=5)?
Answer: 138.2 § mmHg

Question: And the “Mean Arterial Pressure, Average” value ([1]; gavage Aspirin 10 mg/kg 7 days, PHE 10 μg/kg iv, n=5)?
Answer: 167.0* mmHg

Question: And the “Mean Arterial Pressure, individual rats” value ([1]; gavage Aspirin 10 mg/kg 7 days, PHE 20 μg/kg iv)?
Answer: 149.35 mmHg and 120.84 mmHg and 202.61 mmHg and 194.76 mmHg and 203.90 mmHg

Question: What about the “Mean Arterial Pressure, Average” value ([1]; gavage Aspirin 10 mg/kg 7 days, PHE 20 μg/kg iv, n=5) of the same compound?
Answer: 174.3* mmHg

Question: And the “Mean Arterial Pressure, individual rats” value ([1]; gavage Aspirin 10 mg/kg 7 days, second Baseline after PHE 20 μg/kg)?
Answer: 98.38 mmHg and 64.32 mmHg and 164.88 mmHg and 159.32 mmHg and 177.61 mmHg

Question: And the “Mean Arterial Pressure, Average” value ([1]; gavage Aspirin 10 mg/kg 7 days, second Baseline after PHE 20 μg/kg, n=5)?
Answer: 132.9** mmHg
